Measurements as given in patent US11753374B2, “Compounds for the treatment of acute and chronic kidney disease” (Southern Research Institute, priority 2020, dated 2023).

System: heme oxygenase-1 (HO-1)
Assay: High throughput screen: HO-1 promoter/enhancer luciferase reporter (pHOGL3/4.5+220) in stable HEK293 cells
Assay type: cell-based
Settings: Homo sapiens; for EC50: Table 1, evaluation of biaryl aminomaleimides, HO-1 induction; for Emax: Table 1, unit inferred, Emax as % of 5 μM hemin
Procedure: The generation of the pHOGL3/4.5+220 construct is described in Deshane, et al. (2010) “SpI regulates chromatin looping between an intronic enhancer and distal promoter of the human heme oxygenase-1 gene in renal cells” J Biol Chem 285(22): 16476-86. See also FIG. 1.
Briefly, BamHI sites were added to the 4.5-kb PCR product generated by long-range PCR from a bacterial artificial chromosome clone containing portions of chromosome 22 (accession no. Z82244), including the HO-1 gene. This fragment was cloned into the BglII restriction site of the multiple cloning region to make the parental clone (pHOGL3/4.5). The 220-bp intronic enhancer was amplified with SalI sites on either end and cloned into the SalI site of the vector to generate pHOGL3/4.5+220.
In order to generate cells that stably express luciferase expression vectors that lack a mammalian antibiotic selection cassette, HEK293 cells were co-transfected with either pHOGL3/4.5+220 (Deshane et al, 2010) or the Triple Mutant construct (Liby, Hock et al, 2005; Hock et al, 2007) and pcDNA3.1 Zeocin using Lipofectamine 2000. Cells were cultured in Zeocin (400 ug/ml; Invitrogen) for selection. Individual clones were sorted by flow cytometry and plated into a 96-well plate at a density of one cell per well. Clones were maintained and expanded in complete media (DMEM/10% FBS/1× antibiotic-antimycotic) supplemented with 100 ug/ml Zeocin, and incubated at 37° C. in 5% carbon dioxide. Incorporation of the Luciferase expression vectors was validated by assaying for luciferase.
A library of over 150,000 compounds, as well as a library of over 4,000 FDA approved compounds, were used in the HTS assay. […] This led to the identification of approximately 800 compounds that induce HO-1 and have desirable chemical structures. […] The In-Cell Western assay was optimized to screen for endogenous HO-1 in a high throughput platform, and results were validated by Western blot, real-time PCR, and enzyme activity assays. Additional RNA sequencing studies highlighted a role for the transcription factor Nrf2 and other targets in HO-1 induction by several small molecules.

Structure (SMILES)	EC50 [µM]	Emax [%]
O=C1C=C(Nc2ccc(O)cc2F)C(=O)N1c1ccccc1 [Compound 4]	1.78	38.9
O=C1C=C(Nc2ccc(O)c(Cl)c2)C(=O)N1c1ccccc1 [Compound 7]	> 50	
O=C1C=C(Nc2cc(F)c(O)c(F)c2)C(=O)N1c1ccc(N2CCOCC2)cc1 [Compound 60]	22.2	66.9
O=C1C=C(Nc2cc(F)c(O)c(F)c2)C(=O)N1c1ccc(-c2cscn2)cc1 [Compound 59]	9.22	43.9
O=C1C=C(Nc2cc(F)c(O)c(F)c2)C(=O)N1c1ccc(O)cc1 [Compound 50]	15.3	75.2
O=C1C=C(Nc2cc(F)c(O)c(F)c2)C(=O)N1c1cccc2ccccc12 [Compound 45]	36.1	141
O=C1C=C(Nc2cc(F)c(O)c(F)c2)C(=O)N1c1ccc(C(F)(F)F)cc1 [Compound 39]	4.32	94.9
O=C1C=C(Nc2cc(F)c(F)c(F)c2)C(=O)N1c1ccccc1 [Compound 21]	> 50	
O=C1C=C(N2CCN(c3ccc(O)cc3)CC2)C(=O)N1c1ccccc1 [Compound 22]	> 50	
COc1c(F)cc(NC2=CC(=O)N(c3ccccc3)C2=O)cc1F [Compound 23]	> 50	
O=C1C=C(Nc2cc(F)c(O)c(F)c2)C(=O)N1c1ccc(F)cc1 [Compound 26]	4.21	80.7
Nc1ccc(NC2=CC(=O)N(c3ccccc3)C2=O)cc1 [Compound 25]	> 50	
COc1cc(N2C(=O)C=C(Nc3cc(F)c(O)c(F)c3)C2=O)ccc1F [Compound 52]	14	53.1
O=C1C=C(Nc2cc(F)c(O)c(F)c2)C(=O)N1c1ccc(Oc2ccccc2)cc1 [Compound 61]	3.77	33.4
O=C1C=C(Nc2cc(F)c(O)c(F)c2)C(=O)N1C1CC1 [Compound 68]	> 50	
Cc1ccc(N2C(=O)C=C(Nc3cc(F)c(O)c(F)c3)C2=O)c(C)c1 [Compound 38]	2.29	57
O=C1C=C(Nc2cc(F)c(O)c(F)c2)C(=O)N1c1ccc(-c2ccccc2)cc1 [Compound 62]	2.75	34.6
O=C1C=C(Nc2cc(Cl)c(Cl)cc2O)C(=O)N1c1ccccc1 [Compound 16]	> 50	
O=C1C=C(Nc2cc(F)c(O)c(F)c2)C(=O)N1c1ccc(Cl)cc1 [Compound 29]	3.34	110
O=C1C=C(Nc2cc(F)c(O)c(F)c2)C(=O)N1c1ccc(OC(F)(F)F)cc1 [Compound 31]	2.31	64
O=C1C=C(Nc2cc(F)c(O)c(F)c2)C(=O)N1c1ccc(-c2ncco2)cc1 [Compound 42]	> 50	
CN(C)c1ccc(N2C(=O)C=C(Nc3cc(F)c(O)c(F)c3)C2=O)cc1 [Compound 53]	3.35	94.1

Structure (SMILES)	EC50 [µM]	Emax [%]
N#Cc1ccc(N2C(=O)C=C(Nc3cc(F)c(O)c(F)c3)C2=O)cc1 [Compound 40]	> 50	
N#Cc1cccc(N2C(=O)C=C(Nc3cc(F)c(O)c(F)c3)C2=O)c1 [Compound 66]	> 50	
O=C1C=C(Nc2cc(F)c(O)cc2F)C(=O)N1c1ccccc1 [Compound 14]	2.97	49.1
COc1cc(N2C(=O)C=C(Nc3cc(F)c(O)c(F)c3)C2=O)cc(OC)c1OC [Compound 33]	2.08	28.4
O=C1C=C(Nc2ccc(O)c(F)c2F)C(=O)N1c1ccccc1 [Compound 8]	5.49	41.7
O=C1C=C(Nc2cc(F)c(O)c(F)c2)C(=O)N1c1ccc(OC(F)F)cc1 [Compound 55]	2.27	93.3
O=C1C=C(Nc2ccc(O)c(F)c2)C(=O)N1c1ccccc1 [Compound 3]	1.86	56.4
O=C1C=C(Nc2cc(F)c(O)c(F)c2)C(=O)N1c1cc(F)cc(F)c1 [Compound 27]	> 50	72.6
O=C1C=C(Nc2ccc(O)c(C(F)(F)F)c2)C(=O)N1c1ccccc1 [Compound 11]	> 50	
COc1c(Cl)cccc1N1C(=O)C=C(Nc2cc(F)c(O)c(F)c2)C1=O [Compound 34]	> 50	28.3
O=C1C=C(Nc2cc(F)c(O)c(F)c2)C(=O)N1c1ccc2c(c1)OCO2 [Compound 32]	12.9	38.1
O=C1C=C(Nc2cc(F)c(O)c(F)c2)C(=O)N1CCc1ccccc1 [Compound 46]	0.43	68.5
O=C1C=C(Nc2cc(F)c(O)c(F)c2)C(=O)N1c1ccccc1 [Compound 1, 3-(3,5-difluoro-4-hydroxy-anilino)-1-phenyl-pyrrole-2,5-dione]	3.08	90.6
O=C1C=C(Nc2cc(F)c(O)c(F)c2)C(=O)N1c1cccc(C(F)(F)F)c1 [Compound 64]	3.33	23.9
O=C1C=C(Nc2ccc(O)cc2)C(=O)N1c1cc(F)c(O)c(F)c1 [Compound 69]	16.7	105
Cc1ccc(N2C(=O)C=C(Nc3cc(F)c(O)c(F)c3)C2=O)cc1 [Compound 35]	2.1	96.8
O=C1C=C(Nc2ccccc2)C(=O)N1c1cc(F)c(O)c(F)c1 [Compound 70]	> 50	
COC(=O)c1ccc(N2C(=O)C=C(Nc3cc(F)c(O)c(F)c3)C2=O)cc1 [Compound 44]	19.1	99.6
O=C1C=C(Nc2cc(F)c(O)c(F)c2)C(=O)N1c1ccc(N2CCCCC2)cc1 [Compound 41]	11.5	70.4
Cc1ccc(N2C(=O)C=C(Nc3cc(F)c(O)c(F)c3)C2=O)cc1C [Compound 37]	1.56	57.2
O=C1C=C(Nc2cc(O)c(Cl)cc2F)C(=O)N1c1ccccc1 [Compound 19]	> 50	
COc1ccc(N2C(=O)C=C(Nc3cc(F)c(O)c(F)c3)C2=O)cc1F [Compound 57]	5.67	98.7

Structure (SMILES)	EC50 [µM]	Emax [%]
O=C1C=C(Nc2ccc(O)c(Cl)c2F)C(=O)N1c1ccccc1 [Compound 9]	1.69	33.7
O=C1C=C(Nc2cc(F)c(O)c(F)c2)C(=O)N1c1cc(F)c(F)c(F)c1 [Compound 28]	16.9	31.3
O=C(O)c1ccc(NC2=CC(=O)N(c3ccccc3)C2=O)cc1 [Compound 24]	> 50	
COc1c(F)cc(N2C(=O)C=C(Nc3cc(F)c(O)c(F)c3)C2=O)cc1F [Compound 49]	8.37	69.6
COC(=O)c1cccc(N2C(=O)C=C(Nc3cc(F)c(O)c(F)c3)C2=O)c1 [Compound 65]	15.6	42.8
O=C1C=C(Nc2cc(O)c(F)cc2F)C(=O)N1c1ccccc1 [Compound 18]	> 50	
O=C1C=C(Nc2cc(F)c(O)c(F)c2)C(=O)N1Cc1ccccc1 [Compound 43]	1.03	67.5
CC(C)c1ccc(N2C(=O)C=C(Nc3cc(F)c(O)c(F)c3)C2=O)cc1 [Compound 36]	0.89	52.5
O=C1C=C(Nc2cc(F)cc(F)c2O)C(=O)N1c1ccccc1 [Compound 15]	> 50	
O=C1C=C(Nc2ccc(O)cc2)C(=O)N1c1ccccc1 [Compound 2]	1.81	38.1
O=C1C=C(Nc2cc(F)c(O)c(F)c2)C(=O)N1c1ccccc1F [Compound 48]	13.7	82.9
O=C1C=C(Nc2ccc(O)cc2Cl)C(=O)N1c1ccccc1 [Compound 6]	1.74	20.4
O=C1C=C(Nc2cc(F)c(O)c(F)c2)C(=O)N1c1cccc(F)c1 [Compound 63]	3.19	30
O=C1C=C(Nc2ccc(F)c(F)c2O)C(=O)N1c1ccccc1 [Compound 17]	12	54.4
COc1ccc(N2C(=O)C=C(Nc3cc(F)c(O)c(F)c3)C2=O)cc1 [Compound 30]	2.91	111
Cc1cc(NC2=CC(=O)N(c3ccccc3)C2=O)cc(C)c1O [Compound 12]	7.55	39.3
O=C1C=C(Nc2ccc(O)c3ncccc23)C(=O)N1c1ccccc1 [Compound 13]	> 50	
CC(C)(C)c1ccc(N2C(=O)C=C(Nc3cc(F)c(O)c(F)c3)C2=O)cc1 [Compound 58]	1.73	53.3
O=C1C=C(Nc2cc(Cl)c(O)c(Cl)c2)C(=O)N1c1ccccc1 [Compound 5]	31.3	72.8
COc1ccc(N2C(=O)C=C(Nc3cc(F)c(O)c(F)c3)C2=O)cc1C#N [Compound 56]	8.39	36.1
COc1ccccc1N1C(=O)C=C(Nc2cc(F)c(O)c(F)c2)C1=O [Compound 54]	20	54.9
O=C1C=C(Nc2c(F)cc(O)cc2F)C(=O)N1c1ccccc1 [Compound 10]	> 50	
